According to patent US20250313635A1, “ANTI-INTEGRIN ANTIBODIES AND USES THEREOF” (Merck Sharp & Dohme LLC, priority 2022, published 2025):

Experiments:
[1] = system: bleomycin-induced lung fibrosis mouse model; test: Mouse bleomycin lung fibrosis model; format: in vivo; settings: MK-0429 200 mpk osmotic minipump, Nintedanib 60 mpk po qd
Protocol: Mouse bleomycin lungfibrosis models. Adult male C57BL/6 mice (Taconic, Rensselaer, NY) were housed in a temperature and humidity-controlled facility with a 12-hour light: 12-hour dark cycle. Animals had ad libitum access to food (Purina Rodent Chow 5053, LabDiet, St. Louis, MO) and water. All procedures utilizing experimental animals were conducted in accordance with the Guide for the Care and Use of Laboratory Animals, and experimental procedures were reviewed and approved by the Institutional Animal Care and Use Committee at MRL, Kenilworth, NJ.
For osmotic minipump implantation, trifluoroacetate (TFA) salt of MK-0429 was formulated in 50% dimethylsulfoxide (DMSO)/50% H2O at a concentration of 416 mg/mL. MK-0429 or vehicle solution were filled in minipumps (Alzet, #1007D, flow rate 0.5 μL/hour). Minipumps were placed in mice subcutaneously in a pocket on the back between the shoulder blades. A small incision was made and a subcutaneous pocket formed by blunt dissection. A sterile minipump was inserted into the subcutaneous pocket. The incision was closed with staples or non-absorbable suture or absorbable (subcuticular) suture. The minipumps were used for continuous drug delivery for two weeks.
Mice at 12˜13 weeks of age were randomized to five groups: saline, bleomycin instillation with vehicle (osmotic minipump), bleomycin instillation with MK-0429 treatment, bleomycin instillation with vehicle oral treatment, and bleomycin instillation with Nintedanib treatment. All mice were anaesthetized with isoflurane. Bleomycin was dosed by intratracheal (i.t) instillation in a volume of 50 μL, at a dose of 1 unit/kg body weight. After instillation, mice were kept in a heads-up position for 2-5 minutes before putting into cages. MK-0429 (200 mg/kg) was administered by Osmotic pump from day 5 to day 14 and Nintedanib (60 mg/kg) was administered, p.o., q.d., for 14 days. Vehicle was dosed orally at 10 am daily from the day 5 to the end of the studies and dosing volume was 10 mL/kg. For plasma PK analysis, an aliquot of 50 μL plasma was spiked into a 96-well plate, and 200 μL of acetonitrile containing internal standard were added for protein precipitation. The mixture was vortexed, centrifuged at 4000 rpm for 20 minutes. Then 50 μL of supernatant fraction was mixed with 200 μL H2O and the final solution were injected for LC-MS/MS analysis. The methods for quantitative analysis were developed on UPLC (Waters) chromatographic system equipped with an API4000 QTrap™ mass spectrometer (Applied Biosystems, Concord, Ontario, Canada). Analyst 1.5 software packages (Applied Biosystems) were used to control the LC-MS/MS system and data acquisition and processing.
Histopathology analysis. Upon completion of the study, animals were euthanized and tissues were collected for histological assessment. Lung tissues were perfused with 10% formalin, fixed for 24 hours, and then paraffin embedded. Tissue sections were stained with hematoxylin & eosin (H&E) and Masson's trichrome, subsequently evaluated under light microscope. The severity of histopathologic changes and fibrosis in the lung were graded as described previously by pathologists (Ashcroft et al., J. Clin. Pathol. 41, 467-470 (1988); Hubner et al., Biotechniques 44(507-511), 514-607 (2008)). Following deparaffinization and rehydration, each lung tissue section was processed to identify αSMA deposition by immunohistochemistry. The primary antibodies used were αSMA antibody from Sigma. The Aperio ScanScope™ XT Slide Scanner (Aperio Technologies) system was used to capture whole slide digital images with a 20×objective. Digital images were managed using Aperio Spectrum™. The positive stains were identified and quantified using a macro created from a color deconvolution algorithm (Aperio Technologies). Statistical analysis was performed by using One-way ANOVA followed by Tukey's test.

mαvβ5 = molecular target: T1, mαvβ5 (Mus musculus, UniProt O70309+P43406); test: Mouse AlphaLISA integrin-ligand blocking assay (vitronectin); format: biochemical; settings: Table 12; read-out: IC50 Mouse integrin AlphaLISA assays mαvβ5
T1 construct: The full extracellular domains for all α and β integrin subunits; (GGGS)3 linker (C); acidic coiled-coil with cysteine (C); GG-Avitag (C); hexa-histidine tag (C); basic coiled-coil with cysteine (C); made in house; host or cells: Expi293 cells
T1 sequence (P43406 31-988 limits assumed): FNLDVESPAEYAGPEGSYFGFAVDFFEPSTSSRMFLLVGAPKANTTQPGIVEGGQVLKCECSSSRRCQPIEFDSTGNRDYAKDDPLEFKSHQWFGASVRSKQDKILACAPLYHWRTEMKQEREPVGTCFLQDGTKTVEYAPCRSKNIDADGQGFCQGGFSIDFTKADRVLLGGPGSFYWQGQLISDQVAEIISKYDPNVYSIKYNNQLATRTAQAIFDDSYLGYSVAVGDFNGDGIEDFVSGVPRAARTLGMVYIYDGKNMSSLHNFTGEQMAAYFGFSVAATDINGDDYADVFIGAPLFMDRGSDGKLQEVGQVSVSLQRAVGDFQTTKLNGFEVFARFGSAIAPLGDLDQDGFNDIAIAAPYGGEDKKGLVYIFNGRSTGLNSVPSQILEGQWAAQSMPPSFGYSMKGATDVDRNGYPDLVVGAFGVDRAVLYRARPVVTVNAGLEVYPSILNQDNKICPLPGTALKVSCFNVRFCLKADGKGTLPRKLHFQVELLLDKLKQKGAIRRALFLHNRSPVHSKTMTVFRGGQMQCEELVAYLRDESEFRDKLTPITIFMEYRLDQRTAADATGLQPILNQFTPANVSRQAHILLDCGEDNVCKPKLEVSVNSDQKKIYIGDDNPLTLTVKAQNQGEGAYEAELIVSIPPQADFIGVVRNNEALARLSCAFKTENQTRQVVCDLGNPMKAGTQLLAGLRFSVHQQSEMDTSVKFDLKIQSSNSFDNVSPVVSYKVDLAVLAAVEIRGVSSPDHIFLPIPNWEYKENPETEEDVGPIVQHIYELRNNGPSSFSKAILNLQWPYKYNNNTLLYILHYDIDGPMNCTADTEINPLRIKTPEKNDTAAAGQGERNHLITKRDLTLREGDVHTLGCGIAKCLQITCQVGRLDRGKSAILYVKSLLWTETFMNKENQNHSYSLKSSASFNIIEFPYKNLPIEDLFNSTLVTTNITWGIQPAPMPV
T1 sequence (O70309 24-719 limits assumed): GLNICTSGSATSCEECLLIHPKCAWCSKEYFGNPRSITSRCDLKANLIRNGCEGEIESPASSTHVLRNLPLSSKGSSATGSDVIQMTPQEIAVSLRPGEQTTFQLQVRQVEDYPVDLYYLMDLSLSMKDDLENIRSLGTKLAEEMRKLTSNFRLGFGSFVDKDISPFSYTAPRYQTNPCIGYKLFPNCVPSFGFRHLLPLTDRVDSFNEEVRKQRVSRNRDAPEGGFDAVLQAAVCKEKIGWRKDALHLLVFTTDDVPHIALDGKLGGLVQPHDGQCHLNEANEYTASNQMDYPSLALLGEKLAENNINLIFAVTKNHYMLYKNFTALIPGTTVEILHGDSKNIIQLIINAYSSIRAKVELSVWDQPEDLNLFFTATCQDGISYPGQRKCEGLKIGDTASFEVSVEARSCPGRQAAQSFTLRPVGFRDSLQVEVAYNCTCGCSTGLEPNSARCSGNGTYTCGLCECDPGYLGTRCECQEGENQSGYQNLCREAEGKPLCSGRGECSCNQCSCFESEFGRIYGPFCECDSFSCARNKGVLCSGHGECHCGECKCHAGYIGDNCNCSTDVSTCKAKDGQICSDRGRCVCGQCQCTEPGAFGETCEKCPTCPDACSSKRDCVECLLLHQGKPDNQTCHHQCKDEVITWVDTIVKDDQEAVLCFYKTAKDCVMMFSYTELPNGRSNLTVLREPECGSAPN
Protocol: (§1) Integrin AlphaLISA assay. In the AlphaLISA integrin assays, we used a HEPES based buffer (25 mM HEPES pH 7.4, 137 mM NaCl, 1 mM MgCl2, 1 mM MnCl2, 2 mM CaCl2, 2.7 mM KCl, and 0.05% Tween 20). Optimal assay conditions were determined with a titration of the reagents for signal noise ratio (S/N), linear range, etc. For the respective integrins, we used the final concentrations described in Table 9.
(§2) Briefly, the testing antibody (8 μL) was added as a 4×(of Final testing concentration) solution in the HEPES buffer described previously into a 384w AlphaPlate™ (Perkin Elmer #6005350). Then the integrin and ligand were added sequentially as 8×(4 μL each). Plates were sealed and incubated at room temperature for two hours. Then 4×acceptor bead solution ([…]) was added, and the plates were resealed and incubated at room temperature (RT) for one hour. Finally, 4×([…]) donor beads solution was added in a darkened room and incubated for 45 minutes at room temperature. Plates were read on the Envision (Perkin Elmer) in AlphaScreen™ mode within three hours of donor bead addition.

mαvβ3 = molecular target: T2, mαvβ3 (Mus musculus, UniProt O54890+P43406); test: as above; format: biochemical; settings: Table 12; read-out: IC50 Mouse integrin AlphaLISA assays mαvβ3
T2 construct: The full extracellular domains for all α and β integrin subunits; (GGGS)3 linker (C); acidic coiled-coil with cysteine (C); GG-Avitag (C); hexa-histidine tag (C); basic coiled-coil with cysteine (C); made in house; host or cells: Expi293 cells
T2 sequence (P43406 31-988 limits assumed): as the sequence (P43406 31-988 limits assumed) above
T2 sequence (O54890 26-717 limits assumed): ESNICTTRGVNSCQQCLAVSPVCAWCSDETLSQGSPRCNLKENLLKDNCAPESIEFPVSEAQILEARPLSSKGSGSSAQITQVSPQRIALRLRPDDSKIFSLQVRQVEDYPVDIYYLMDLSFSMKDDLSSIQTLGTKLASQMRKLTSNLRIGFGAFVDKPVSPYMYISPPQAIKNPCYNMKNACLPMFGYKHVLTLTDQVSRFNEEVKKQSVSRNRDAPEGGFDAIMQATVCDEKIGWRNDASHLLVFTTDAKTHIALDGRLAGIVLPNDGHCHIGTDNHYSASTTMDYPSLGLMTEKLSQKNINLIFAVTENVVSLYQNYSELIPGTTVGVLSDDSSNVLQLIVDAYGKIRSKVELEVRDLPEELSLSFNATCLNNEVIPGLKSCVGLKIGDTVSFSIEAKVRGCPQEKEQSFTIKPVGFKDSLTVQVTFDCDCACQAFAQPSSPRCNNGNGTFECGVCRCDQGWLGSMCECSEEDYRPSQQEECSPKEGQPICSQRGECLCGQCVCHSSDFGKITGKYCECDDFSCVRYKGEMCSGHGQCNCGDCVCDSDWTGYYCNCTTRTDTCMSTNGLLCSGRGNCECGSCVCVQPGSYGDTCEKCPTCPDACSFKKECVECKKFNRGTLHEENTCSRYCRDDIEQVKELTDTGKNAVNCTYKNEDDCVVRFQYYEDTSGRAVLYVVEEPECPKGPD
Protocol: as §1, §2

[2] = 14 days treatment, vs BLM-vehicle

Structure (SMILES): COc1ccc([C@H](CC(=O)O)N2CCN(CCCc3ccc4c(n3)NCCC4)C2=O)cn1 [MK-0429, (3S)-3-(6-methoxypyridin-3-yl)-3-[2-oxo-3-[3-(5,6,7,8-tetrahydro-1,8-naphthyridin-2-yl)propyl]imidazolidin-1-yl]propanoic acid]
- body weight difference vs bleomycin group [1]: no significant body weight difference
- BALF TIMP-1 content [1, 2]: did not reach statistical significance
- bleomycin-induced αSMA expression (IHC) [1, 2]: significantly decreased
- inflammation in the lung [1, 2]: nonstatistical significant decrease
- modified Ashcroft score [1, 2]: significantly decreased
- IC50 (mαvβ5): 48.3 nM
- IC50 (mαvβ3): 0.9 nM
